This is an account of results in patent US10118916B2, “Modulators of cystic fibrosis transmembrane conductance regulator protein” (AbbVie S.à.r.l., priority 2016, dated 2018).

For this assay, the target named is T1, F508delCFTR (Homo sapiens, UniProt P13569, DEL508-508).
T1 construct: expressed in transfected cells; host or cells: CFBE41o- (human lung derived epithelial cell line), doxycycline-inducible
Nature of the assay: Cell Surface Expression-Horse Radish Peroxidase (CSE-HRP) assay. In kind it is cell-based. The settings on record: CFBE41o-F508delCFTR-HRP cells; for EC50: F508delCFTR cell surface expression, luminescence, 18-24 hours at 33° C., highest concentration 20 μM; for Maximum % activity: maximum at any tested concentration, normalized to on-plate positive control (3 μM). An excerpt:
Cell Surface Expression-Horse Radish Peroxidase (CSE-HRP) Assay:
A cellular assay for measuring the F508delCFTR cell surface expression after correction with test compounds was developed in human lung derived epithelial cell line (CFBE41o-) (Veit G et al, (2012) Mol Biol Cell. 23(21): 4188-4202). This was achieved by expressing the F508delCFTR mutation along with a horseradish peroxidase (HRP) in the fourth exofacial loop and then measuring the HRP activity using luminescence readout from these cells, CFBE41o-F508delCFTR-HRP, that were incubated overnight with the test corrector compounds. Briefly, for this primary assay, the CFBE41o-F508delCFTR-HRP cells were plated in 384-well plates (Greiner Bio-one; Cat 781080) at 4,000 cells/well along with 0.5 μg/mL doxycycline to induce the F508delCFTR-HRP expression and further incubated at 37° C., 5% CO2 for 72 hours. The test compounds were then added at the required concentrations and further incubated for 18-24 hours at 33° C. The highest concentration tested was 20 μM with an 8-point concentration response curve using a 3-fold dilution. Three replicate plates were run to determine one EC50. All plates contained negative controls (dimethyl sulfoxide, DMSO) and positive controls (3 μM of 3-[(2R,4R)-4-({[1-(2,2-difluoro-1,3-benzodioxol-5-yl)cyclopropyl]carbonyl}amino)-7-methoxy-3,4-dihydro-2H-chromen-2-yl]benzoic acid) as well as on-plate concentration response of the positive control. Post incubation, the plates were washed 5× times with Dulbecco's phosphate buffered saline (DPBS), followed by the addition of the HRP substrate, luminol (50 μL), and measuring the HRP activity using luminescence readout on EnVision® Multilabel Plate Reader (Perkin Elmer; product number 2104-0010). The raw counts from the experiment are analyzed using Accelrys® Assay Explorer v3.3.
Z′ greater than 0.5 was used as passing quality control criteria for the plates.
The Z′ is defined as: 1−[3*SDPositive Control+3*SDNegative Control/Absolute(MeanPositive Control−MeanNegative Control)] wherein “SD” is standard deviation.
The % activity measured at each of the 8 test concentrations of the test compound was normalized to the on-plate positive control using the following formula: % activity=[(test compound response−DMSO response)/(positive control response−DMSO response)]*100
The maximum % activity achieved for the test compound at any tested concentration is presented in Table 1 along with the EC50 calculated using the following general sigmoidal curve with variable Hill slope equation (described as Model 42 in the Accelrys® Assay Explorer v3.3 software): y=(a−d)/(1+(x/c)^b)+d
General sigmoidal curve with concentration, response, top, bottom, EC50 and Hill slope.
This model describes a sigmoidal curve with an adjustable baseline, a. The equation can be used to fit curves where response is either increasing or decreasing with respect to the independent variable, “x”. • “x” is a concentration of drug under test. • “y” is the response. • “a” is the maximum response, and “d” is the minimum response • “c” is the inflection point (EC50) for the curve. That is, “y” is halfway between the lower and upper asymptotes when x=c. • “b” is the slope-factor or Hill coefficient. The sign of b is positive when the response increases with increasing dose and is negative when the response decreases with increasing dose (inhibition).

T1 sequence (P13569 with tags, fused parts or gaps DEL508-508): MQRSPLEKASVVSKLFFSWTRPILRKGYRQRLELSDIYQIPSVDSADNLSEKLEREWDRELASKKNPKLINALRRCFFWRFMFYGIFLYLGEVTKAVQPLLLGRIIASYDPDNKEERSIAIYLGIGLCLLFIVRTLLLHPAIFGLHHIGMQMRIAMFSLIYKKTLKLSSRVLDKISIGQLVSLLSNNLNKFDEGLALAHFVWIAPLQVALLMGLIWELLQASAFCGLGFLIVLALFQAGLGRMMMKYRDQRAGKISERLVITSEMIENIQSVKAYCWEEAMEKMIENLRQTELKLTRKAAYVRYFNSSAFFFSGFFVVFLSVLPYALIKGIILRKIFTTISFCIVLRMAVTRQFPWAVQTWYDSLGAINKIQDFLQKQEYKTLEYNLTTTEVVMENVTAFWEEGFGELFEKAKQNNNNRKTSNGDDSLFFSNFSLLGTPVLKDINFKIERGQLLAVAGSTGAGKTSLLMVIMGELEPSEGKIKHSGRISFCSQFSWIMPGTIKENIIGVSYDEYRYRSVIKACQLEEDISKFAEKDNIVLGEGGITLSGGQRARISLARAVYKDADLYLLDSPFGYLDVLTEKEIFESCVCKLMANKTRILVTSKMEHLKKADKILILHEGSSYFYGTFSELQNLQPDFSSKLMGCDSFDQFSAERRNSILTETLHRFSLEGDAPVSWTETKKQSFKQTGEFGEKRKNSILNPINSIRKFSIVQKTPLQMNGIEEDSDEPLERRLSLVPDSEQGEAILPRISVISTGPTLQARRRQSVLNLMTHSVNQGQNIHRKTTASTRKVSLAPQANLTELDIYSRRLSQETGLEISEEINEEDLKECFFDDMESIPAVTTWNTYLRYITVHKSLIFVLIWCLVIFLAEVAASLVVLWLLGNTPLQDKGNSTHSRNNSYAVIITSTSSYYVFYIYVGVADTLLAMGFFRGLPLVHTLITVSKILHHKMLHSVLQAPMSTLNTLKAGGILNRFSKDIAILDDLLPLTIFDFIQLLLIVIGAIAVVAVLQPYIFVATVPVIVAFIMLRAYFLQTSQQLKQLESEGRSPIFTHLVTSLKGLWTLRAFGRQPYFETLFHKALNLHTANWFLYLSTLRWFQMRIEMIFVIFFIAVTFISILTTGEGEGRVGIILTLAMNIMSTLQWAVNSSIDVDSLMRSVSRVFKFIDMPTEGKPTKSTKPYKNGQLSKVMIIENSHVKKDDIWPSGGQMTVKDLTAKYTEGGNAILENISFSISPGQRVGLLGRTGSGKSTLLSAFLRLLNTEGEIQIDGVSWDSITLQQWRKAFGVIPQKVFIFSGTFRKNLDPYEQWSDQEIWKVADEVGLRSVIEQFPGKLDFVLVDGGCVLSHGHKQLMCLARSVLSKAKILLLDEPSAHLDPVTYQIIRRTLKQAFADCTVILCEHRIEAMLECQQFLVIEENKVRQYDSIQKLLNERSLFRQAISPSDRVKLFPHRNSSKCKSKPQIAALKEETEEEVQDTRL

By EC50 is commonly meant the midpoint of the concentration-response curve. Low values mean a more potent agent, high ones a less potent agent. Take “3-[(2R,4R)-4-{[(2R)-6-chloro-2-methyl-3,4-dihydro-2H-1-benzopyran-2-carbonyl]amino}-7-methoxy-3,4-dihydro-2H-1-benzopyran-2-yl]benzoic acid [Example 65]”: a half-maximal response (EC50) required 2140 nM and the Maximum % activity amounted to 27.0%.
For “3-{(2R,4R)-4-[2-(2H-1,3-benzodioxol-5-yl)-2-methylpropanamido]-7-methoxy-3,4-dihydro-2H-1-benzopyran-2-yl}benzoic acid [Example 38]” the same measures were 160 nM and 34.4%.
As to “4-[(2R,4R)-4-(2-ethyl-2-phenylbutanamido)-7-methoxy-3,4-dihydro-2H-1-benzopyran-2-yl]benzoic acid [Example 79]”, the EC50 was > 20000 nM and the Maximum % activity was −0.3%.
For `COc1ccc2c(c1)O[C@@H](c1ccc(C(=O)O)cc1)C[C@H]2NC(=O)C1(c2ccccc2)CC1(F)F` (mixture of isomers) [Example 105, 4-{(2R,4R)-4-[(2,2-difluoro-1-phenylcyclopropane-1-carbonyl)amino]-7-methoxy-3,4-dihydro-2H-1-benzopyran-2-yl}benzoic acid] the same measures were 1100 nM and 32.0%.
For `COC(=O)c1cccc([C@H]2C[C@@H](NC(=O)C3(C)CCc4cc(C)ccc43)c3ccc(OC)cc3O2)c1` (mixture of isomers) [Example 123, methyl 3-{(2R,4R)-4-[(1,5-dimethyl-2,3-dihydro-1H-indene-1-carbonyl)amino]-7-methoxy-3,4-dihydro-2H-1-benzopyran-2-yl}benzoate] the same measures were 450 nM and 80.8%.
The like results for `COc1ccc2c(c1)O[C@@H](c1ccc(C(=O)O)cc1)C[C@H]2NC(=O)[C@@]1(C)CCc2cc(C)ccc21` (single isomer, unassigned) [Example 9] were, in that order, 180 nM and 95.5%.
As for `COC(=O)[C@H]1CC[C@@H]([C@H]2C[C@@H](NC(=O)C3(c4ccc5c(c4)OC(F)(F)O5)CC3)c3ccc(OC(F)F)cc3O2)CC1` (single isomer, unassigned) [Example 14D], the 50% effective concentration (EC50) stood at 630 nM and the Maximum % activity is 121.5%.
For `COC(=O)[C@H]1CC[C@H]([C@H]2C[C@@H](NC(=O)C3(c4ccc5c(c4)OC(F)(F)O5)CC3)c3ccc(OC(F)F)cc3O2)CC1` (single isomer, unassigned) [Example 14E] the same measures were 200 nM and 125.0%.
For `COc1ccc2c(c1)O[C@@H](c1cccc(C(=O)O)c1)C[C@H]2NC(=O)[C@]1(C)CCc2cc(C)ccc21` (single isomer, unassigned) [Example 125] the same measures were 440 nM and 70.7%.
`COc1ccc2c(c1)O[C@@H](c1ccc(C(=O)O)cc1)C[C@H]2NC(=O)[C@]1(C)CCc2cc(C)ccc21` (single isomer, unassigned) [Example 126]: it took 650 nM to reach a half-maximal effect (EC50) and the Maximum % activity is reported as 72.1%.
With `COc1ccc2c(c1)O[C@@H](c1ccc(C(=O)O)cc1)C[C@H]2NC(=O)C(C)(C)c1ccc2c(c1)OC(F)(F)O2` [Example 1, 4-{(2R,4R)-4-[2-(2,2-difluoro-2H-1,3-benzodioxol-5-yl)-2-methylpropanamido]-7-methoxy-3,4-dihydro-2H-1-benzopyran-2-yl}benzoic acid], the EC50 was determined as 550 nM and the Maximum % activity is recorded as 110.0%.
With `COc1ccc2c(c1)O[C@@H](c1ccc(C(=O)O)cc1)C[C@H]2NC(=O)C1(c2ccc(Cl)c(Cl)c2)CC1` [Example 2, 4-[(2R,4R)-4-{[1-(3,4-dichlorophenyl)cyclopropane-1-carbonyl]amino}-7-methoxy-3,4-dihydro-2H-1-benzopyran-2-yl]benzoic acid], a half-maximal response (EC50) required 150 nM and the Maximum % activity is on record as 95.0%.
The like results for `COc1ccc2c(c1)O[C@@H](c1ccc(C(=O)O)cc1)C[C@H]2NC(=O)C1(c2ccc(OC(F)(F)F)cc2)CC1` [Example 3, 4-[(2R,4R)-7-methoxy-4-({1-[4-(trifluoromethoxy)phenyl]cyclopropane-1-carbonyl}amino)-3,4-dihydro-2H-1-benzopyran-2-yl]benzoic acid] were, in that order, 1940 nM and 106.0%.
As for `COc1ccc2c(c1)O[C@@H](c1ccc(C(=O)O)cc1)C[C@H]2NC(=O)C1(c2ccc(Br)cc2)CC1` [Example 4, 4-[(2R,4R)-4-{[1-(4-bromophenyl)cyclopropane-1-carbonyl]amino}-7-methoxy-3,4-dihydro-2H-1-benzopyran-2-yl]benzoic acid], the response was half-maximal at 260 nM (EC50) and the Maximum % activity is reported as 94.2%.
As to `COc1ccc2c(c1)O[C@@H](c1ccc(C(=O)O)cc1)C[C@H]2NC(=O)C1(c2ccc(C(F)(F)F)cc2)CC1` [Example 5, 4-[(2R,4R)-7-methoxy-4-({1-[4-(trifluoromethyl)phenyl]cyclopropane-1-carbonyl}amino)-3,4-dihydro-2H-1-benzopyran-2-yl]benzoic acid], a half-maximal effect (EC50) was put at 210 nM and the Maximum % activity stood at 120.0%.
For `COc1ccc2c(c1)O[C@@H](c1ccc(C(=O)O)cc1)C[C@H]2NC(=O)C1(c2ccc(C)cc2)CC1` [Example 6, 4-[(2R,4R)-7-methoxy-4-{[1-(4-methylphenyl)cyclopropane-1-carbonyl]amino}-3,4-dihydro-2H-1-benzopyran-2-yl]benzoic acid] the same measures were 90 nM and 95.9%.
The like results for `COc1ccc2c(c1)O[C@@H](c1ccc(C(=O)O)cc1)C[C@H]2NC(=O)C1(C)CCc2cc(C)ccc21` (stereo partly drawn) [Example 7, 4-{(2R,4R)-4-[(1,5-dimethyl-2,3-dihydro-1H-indene-1-carbonyl)amino]-7-methoxy-3,4-dihydro-2H-1-benzopyran-2-yl}benzoic acid] were, in that order, 160 nM and 90.1%.
For `CCOC(=O)[C@H]1CC[C@H]([C@H]2C[C@@H](NC(=O)C3(c4ccc5c(c4)OC(F)(F)O5)CC3)c3ccc(OC)cc3O2)CC1` [Example 10, ethyl trans-4-[(2R,4R)-4-{[1-(2,2-difluoro-2H-1,3-benzodioxol-5-yl)cyclopropane-1-carbonyl]amino}-7-methoxy-3,4-dihydro-2H-1-benzopyran-2-yl]cyclohexane-1-carboxylate] the same measures were 290 nM and 119.0%.
Consider `CCOC(=O)[C@H]1CC[C@H]([C@H]2C[C@@H](NC(=O)C3(c4ccc5c(c4)OC(F)(F)O5)CC3)c3ccc(OC(F)(F)F)cc3O2)CC1` [Example 12, ethyl trans-4-[(2R,4R)-4-{[1-(2,2-difluoro-2H-1,3-benzodioxol-5-yl)cyclopropane-1-carbonyl]amino}-7-(trifluoromethoxy)-3,4-dihydro-2H-1-benzopyran-2-yl]cyclohexane-1-carboxylate], for which the response was half-maximal at 70 nM (EC50) and the Maximum % activity was found to be 135.0%.
For `COc1ccc2c(c1)OC(c1ccc(OC)c(OC)c1)CC2NC(=O)C1(c2ccccc2)CC(F)(F)C1` (stereo not shown) [Example 16, N-[2-(3,4-dimethoxyphenyl)-7-methoxy-3,4-dihydro-2H-1-benzopyran-4-yl]-3,3-difluoro-1-phenylcyclobutane-1-carboxamide] the same measures were > 20000 nM and 4.0%.
